In brackets after ≈: the same amount, converted by molar mass.
Key:
Staphylococcus aureus [1] = assay: In vitro antimicrobial activity against Staphylococcus aureus GC 4536 at 10.7 ug/mL soluble peptidoglycan; type: functional
Candida albicans = assay: In vitro antimicrobial activity against Candida albicans […] at 32 ug/ml soluble peptidoglycan; type: functional
Staphylococcus sp. [2] = assay: In vitro antimicrobial activity against Coagulase-negative staphylococcus GC 4538 at 10.7 ug/ml soluble peptidoglycan; type: functional
Enterococcus faecalis [3] = assay: In vitro antimicrobial activity 10.7 ug/ml soluble peptidoglycan; type: functional
Enterococcus faecalis [4] = assay: In vitro antimicrobial activity against Enterococcus faecalis GC 842 at 10.7 ug/ml soluble peptidoglycan; type: functional
Staphylococcus sp. [5] = assay: In vitro antimicrobial activity against CNS GC 4547 at 10.7 ug/ml soluble peptidoglycan; type: functional
Bacteria = assay: In vitro antimicrobial activity against gram-negative organisms (10)
Enterococcus faecalis [6] = assay: In vitro antimicrobial activity against Enterococcus faecalis GC 4555 at 10.7 ug/ml soluble peptidoglycan; type: functional
Staphylococcus aureus [7] = assay: In vitro antimicrobial activity against Staphylococcus aureus GC 2216 at 10.7 ug/ml soluble peptidoglycan; type: functional
Staphylococcus aureus [8] = assay: In vitro antimicrobial activity against Staphylococcus aureus GC 1131 at 10.7 ug/ml soluble peptidoglycan; type: functional
Staphylococcus sp. [9] = assay: In vitro antimicrobial activity against CNS GC 4538 at 10.7 ug/ml soluble peptidoglycan; type: functional

COc1ccc(Cn2c(=O)ccn([C@@H]3OC([C@@H](O)[C@H](NCCCNC(=O)[C@H](NC(=O)OCc4ccccc4)C(O)C(C)C)C(=O)OC(C)(C)C)[C@@H](O[Si](C)(C)C(C)(C)C)[C@H]3O[Si](C)(C)C(C)(C)C)c2=O)cc1 (stereo partly specified)
MIC (Staphylococcus aureus [1]): 128 µg/mL (≈ 123 µM) | MIC (Candida albicans): 32 µg/mL (≈ 30.7 µM) | MIC (Staphylococcus sp. [2]): 128 µg/mL (≈ 123 µM) | MIC (Enterococcus faecalis [3]): 64 µg/mL (≈ 61.4 µM) | MIC (Enterococcus faecalis [4]): 64 µg/mL (≈ 61.4 µM) | MIC (Staphylococcus sp. [5]): 128 µg/mL (≈ 123 µM) | MIC (Bacteria): 64 µg/mL (≈ 61.4 µM) | MIC (Enterococcus faecalis [6]): 64 µg/mL (≈ 61.4 µM) | MIC (Staphylococcus aureus [7]): 128 µg/mL (≈ 123 µM) | MIC (Staphylococcus aureus [8]): 128 µg/mL (≈ 123 µM) | MIC (Staphylococcus sp. [9]): 128 µg/mL (≈ 123 µM)
